# Structures can show the parent of a compound that is named as a salt.
# What was measured:
# [1] = test system: HepG2; assay: HepG2 toxicity (resazurin), effect normalised to DMSO (DMSO = 0); higher = more features changed / larger toxic effect; settings: incubation time: 70h incubation
# [2] = test system: HeLa; assay: HeLa toxicity: nuclei-count effect normalised to DMSO (DMSO = 0); higher = more features changed / larger toxic effect; settings: incubation time: 24h incubation
# [3] = test system: HeLa; assay: Cell Painting percent induction (share of features beyond 2 z-scores vs DMSO); higher = more features changed / larger toxic effect; extreme values may be limits of the assay; settings: incubation time: 24h incubation
# [4] = test system: human spermatozoa; assay: total motile sperm, percent change vs DMSO (non-capacitating); higher = more of the measured sperm population than DMSO, for viability, fewer PI-positive (dead) cells than DMSO
# [5] = test system: human spermatozoa; assay: viability fold change, 1 - (PI-positive fraction / DMSO median); higher = more of the measured sperm population than DMSO, for viability, fewer PI-positive (dead) cells than DMSO; settings: incubation time: 3h, non-capacitating
# [6] = test system: human spermatozoa; assay: progressively motile sperm, percent change vs DMSO (capacitating); higher = more of the measured sperm population than DMSO, for viability, fewer PI-positive (dead) cells than DMSO; settings: incubation time: 30min incubation
# [7] = test system: human spermatozoa; assay: hyperactivated motile sperm, percent change vs DMSO (capacitating); higher = more of the measured sperm population than DMSO, for viability, fewer PI-positive (dead) cells than DMSO; settings: incubation time: 30min incubation
# [8] = test system: human spermatozoa; assay: change in acrosome-reacted (PNA+) sperm vs DMSO, no agonist (capacitating); higher = more of the measured sperm population than DMSO, for viability, fewer PI-positive (dead) cells than DMSO; settings: incubation time: 3h
# [9] = test system: human spermatozoa; assay: acrosome-reacted (PNA+) sperm after agonist cocktail, percent change vs DMSO (capacitating); higher = more of the measured sperm population than DMSO, for viability, fewer PI-positive (dead) cells than DMSO; settings: incubation time: 3h, capacitating + agonist cocktail 1h
# [10] = test system: human spermatozoa; assay: progressively motile sperm, percent change vs DMSO (non-capacitating); higher = more of the measured sperm population than DMSO, for viability, fewer PI-positive (dead) cells than DMSO; extreme values may be limits of the assay
# [11] = incubation time: 10min incubation, 9.99 µM
# [12] = incubation time: 10min incubation, 29.9 µM
# [13] = incubation time: 3h incubation, 9.99 µM
# [14] = incubation time: 3h incubation, 29.9 µM
# [15] = incubation time: 6h incubation, 9.99 µM
# [16] = incubation time: 6h incubation, 29.9 µM
# 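Throughout, for progressively motile sperm, percent change vs DMSO (non-capacitating): pooled live human sperm from at least 3 donors, tracked by automated microscopy in 0.5 s time-lapse movies, compounds at 10 and 30 µM, versus median of 16 DMSO wells per plate.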
# 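Throughout, for total motile sperm, percent change vs DMSO (non-capacitating): sperm pooled from at least 3 donors, tracked in 0.5 s time-lapse movies by automated microscopy after 10 min, 3 h or 6 h with compound at 10 or 30 µM.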
SMILES,HepG2 toxicity ([1]; 10 µM) [%],HepG2 toxicity ([1]; 30 µM) [%],HeLa toxicity: nuclei-count effect normalised ([2]; 9.99 µM) [%],HeLa toxicity: nuclei-count effect normalised ([2]; 29.9 µM) [%],Cell Painting percent induction ([3]; 9.99 µM) [%],Cell Painting percent induction ([3]; 29.9 µM) [%],"total motile sperm [4, 11] [%]","total motile sperm [4, 12] [%]","total motile sperm [4, 13] [%]","total motile sperm [4, 14] [%]","total motile sperm [4, 15] [%]","total motile sperm [4, 16] [%]",viability fold change ([5]; 9.99 µM),viability fold change ([5]; 29.9 µM),progressively motile sperm ([6]; 9.99 µM) [%],progressively motile sperm ([6]; 29.9 µM) [%],hyperactivated motile sperm ([7]; 9.99 µM) [%],hyperactivated motile sperm ([7]; 29.9 µM) [%],change in acrosome-reacted ([8]; 9.99 µM) [%],change in acrosome-reacted ([8]; 29.9 µM) [%],acrosome-reacted ([9]; 9.99 µM) [%],acrosome-reacted ([9]; 29.9 µM) [%],"progressively motile sperm [10, 11] [%]","progressively motile sperm [10, 12] [%]","progressively motile sperm [10, 13] [%]","progressively motile sperm [10, 14] [%]","progressively motile sperm [10, 15] [%]","progressively motile sperm [10, 16] [%]"
CC(C)(O)c1ccn2c(-c3ccc(F)c(-c4ccc(F)cc4C#N)c3)cnc2c1F [TP 003],3.92,16.1,15.4,27.2,0.324,2.31,1.87,-0.967,-7.62,-8.89,-7.79,-10.8,-1.77,-1.42,12.3,2.2,59.6,-58,1.9,2.84,100,116,41.3,34.6,73.6,57.9,96,62.3
CCOc1ccc(-c2nc(-c3cccc4c3CCC4NCCO)no2)cc1OCC (stereo not given) [CYM 5442 hydrchloride],14.4,101,-0.601,18,4.97,3.13,0.362,-6.08,7.62,-11.7,7.81,-12.3,-0.289,-0.544,3.76,6.19,46.2,45.7,2.58,4.61,63,75.1,15.6,3.34,40,14.5,51.9,21.7
CCCCCCCCCCCCCCCCOCC(COCC(F)(F)F)OP(=O)([O-])OC (stereo not given) [MJ33],-0.425,2.58,6.41,1,0,0.036,2.25,4.52,-13.2,0.791,-9.12,-4.03,-0.678,-0.975,10.8,15.1,21.6,9.77,0.541,1,6.57,19.6,3.5,11.9,-6.92,-2.7,-4.8,-4.44
COc1cn(-c2ccc(-n3cccn3)cc2F)nc(-c2ccnn2-c2ccccc2)c1=O [Tak-063],-4.05,8.05,6.28,2.94,1.19,3.31,-3.81,-3.32,-11,-14.9,-15.5,-20.7,-1.78,-1.87,4.06,10.1,321,303,0.708,0.393,114,117,26.4,27.7,64.8,48.7,74.2,44
O=S(=O)(NCCNC/C=C/c1ccc(Br)cc1)c1cccc2cnccc12 [H 89 dihydrochloride],-3.98,92.3,7.55,17.5,0.648,1.84,5.7,1.67,2.42,2.31,2.24,1.63,-0.8,-1.21,9.41,1.95,4.83,-35.2,0.62,0.493,4.9,11.9,12.9,3.24,21.9,3.91,27.7,10.5
Nc1ncnc2c1c(-c1cccc(OCc3ccccc3)c1)cn2[C@H]1C[C@@H](CN2CCC2)C1 [NVP-AEW541],82.9,103,27.7,99.5,8.93,57.6,-0.708,-2.42,2.29,-8.07,-0.444,-10.1,-0.326,-0.581,1.09,5.49,16.7,-13.9,0.03,0.662,10.6,31.6,6.28,11.5,31.9,34.1,48.5,31.5
COc1cc2nc(N(C)CCCNC(=O)C3CCCO3)nc(N)c2cc1OC (stereo not given) [Alfuzosin],-1.03,4.29,5.08,0.668,0,0,-4.58,-4.17,-0.419,-6.01,-5.29,-6.7,-0.036,-0.0945,16,9.67,37.3,5.32,-0.201,-0.552,-3.12,0.779,0.477,-1.83,14.5,16.4,16.7,20.9
[O-][S+](c1ccccc1)c1ccc2nnnn2n1 (stereo not given) [Ro 106-9920],103,103,43.7,96.9,0.684,42.4,-8.15,-30.9,-92.3,-89.9,-92.2,-89.8,-0.184,-0.13,-9.75,-78.3,-3.35,-67.1,8.05,18.3,149,142,-34.9,-68.2,-100,-99.9,-100,-100
COc1ccc(CCCN2CCC(COC(c3ccccc3)c3ccccc3)CC2)cc1,1.6,103,11.7,80.9,0,10.8,-0.81,2.28,0.77,-5.61,-0.213,-15.3,-1.38,-1.52,-2.66,-7.92,-18.3,-70.2,1.43,2.85,4.02,18.6,1.8,-4.83,20,-8.53,32.7,-19.4
COc1cc(N2CCOCC2)ccc1Nc1ncc(F)c(Nc2ccccc2NS(C)(=O)=O)n1,11.9,14,12,70.3,0.324,14.1,-2.71,-11.9,-6.38,-20.1,-5.57,-17.4,0.0946,0.0988,-10.8,-4.79,7.89,-19.1,0.77,-0.256,-20.4,-26.8,-27.7,-60.9,-32.8,-74.5,-27,-69.7
CC(C)c1ccc2c(c1)CC[C@H]1[C@](C)(CN)CCC[C@]21C [Leelamine hydrochloride],102,103,88.2,98.4,25.1,36.4,-0.495,-12.1,1.52,-51.7,-1.74,-63.5,-1.89,-2.79,4.41,-53.6,-31,-87.5,5.38,14.4,41.7,60.2,15.1,-12.8,51.8,-74.2,59.5,-84.3
COc1cc(C)c2c(Oc3cccc(C(F)(F)F)c3)c(OC)cc(NC(C)CCCN)c2n1 (stereo not given) [Tafenoquine],103,103,97.2,96.3,28.9,18,-17.5,-74.6,-71.2,-90.7,-79.5,-92,-1.97,-2.48,-71.9,-99.9,-85.5,-85.1,46.7,75,86.1,161,-20.8,-94.3,-85.3,-100,-93.7,-100
CC1(C)CC=C(c2ccccc2)c2cc(/C=C/c3ccc(C(=O)O)cc3)ccc21,0.925,-8.39,6.08,8.35,0,0,2.52,2.83,0.861,0.353,-4.19,0.705,-1.22,-0.368,-4.62,-9.29,-3.7,-30.1,1.18,1.38,10.6,7.54,8.04,5.98,18.8,9.32,6.74,13
Cn1c(=O)c2c(-c3ccccc3)n3c(c2n(C)c1=O)[C@H](c1ccc(Br)o1)Oc1ccc(C(=O)O)cc1-3 [BPO-27],6.74,-5.25,-5.61,-3.14,0.901,0,-0.595,-2.15,1.67,-2.1,2.71,-8.78,-0.786,-0.502,-0.551,-1.51,26.2,0.866,0.114,-0.202,6.48,12.2,4.77,14.7,32.6,41.5,37.8,42.7
O=C(Nc1ccc([N+](=O)[O-])cc1Cl)c1cc(Cl)ccc1O [Niclosamide],-3.07,1.35,31.1,32.3,8.47,7.82,-2.96,-1.25,-8.32,-3.27,-6.27,-2.49,0.501,0.431,-1.8,-5.95,-59.6,-70.1,1.03,1.07,7.25,4.65,-28.1,-27.6,-26.2,-30.1,-18.2,-26.8
Cc1cc2c(C(C)C)c(O)c(O)c(C=O)c2c(O)c1-c1c(C)cc2c(C(C)C)c(O)c(O)c(C=O)c2c1O [Gossypol],54.9,102,27.1,73.1,0.072,17.1,-1.73,0.377,-2.73,-0.0743,-0.633,-2.29,-0.0154,0.577,-0.382,7.08,-21.9,-39.1,1.41,1.17,-15.6,-28.9,-3.27,-2.36,3.33,-8.54,12.2,-12.2
O.O.O.OO.OO.[K+].[OH-].[V].c1cnc2c(c1)ccc1cccnc12 [bpV(phen)],28.8,–,34.3,34.7,0.793,2.7,1.25,3.48,-3.57,-2.96,-4.6,-7.01,-0.0835,-0.163,3.97,14.8,17.7,12.9,1.06,1.79,16.4,21,6.92,8.6,-1.94,-6.75,3.08,-21.9
